We go through two compounds from patent US9474790B2, “Stable, protracted GLP-1/glucagon receptor co-agonists for medical use” (Novo Nordisk A/S, priority 2013, dated 2016).

Molecules are shown by their SMILES. Numbered stars: 1 amine (or outer) side, 2 acyl side, 3 side chain; on linkers, the order of the positions; unused ones are H or OH. Square brackets hold non-standard residues; d marks the D form. Side chains are listed from the residue outwards. Peptide text beside a SMILES is read from it. * marks the point of attachment. C18 diacid = O=C(O)CCCCCCCCCCCCCCCCC(=O)*; γGlu = O=C(O)[C@H](CCC(=O)[*:2])N[*:1]; AEEA = NCCOCCOCC(=O)O; Aib = CC(C)(N)C(=O)O

For experiment [1], the target named is T1, human GLP-1 receptor (Homo sapiens, UniProt P43220).
T1 construct: expressed in transfected cells; host or cells: BHK cells (parent BHKTS13), clone FCW467-12A/KZ10-1, with CRE luciferase
T1 sequence (P43220 24-463): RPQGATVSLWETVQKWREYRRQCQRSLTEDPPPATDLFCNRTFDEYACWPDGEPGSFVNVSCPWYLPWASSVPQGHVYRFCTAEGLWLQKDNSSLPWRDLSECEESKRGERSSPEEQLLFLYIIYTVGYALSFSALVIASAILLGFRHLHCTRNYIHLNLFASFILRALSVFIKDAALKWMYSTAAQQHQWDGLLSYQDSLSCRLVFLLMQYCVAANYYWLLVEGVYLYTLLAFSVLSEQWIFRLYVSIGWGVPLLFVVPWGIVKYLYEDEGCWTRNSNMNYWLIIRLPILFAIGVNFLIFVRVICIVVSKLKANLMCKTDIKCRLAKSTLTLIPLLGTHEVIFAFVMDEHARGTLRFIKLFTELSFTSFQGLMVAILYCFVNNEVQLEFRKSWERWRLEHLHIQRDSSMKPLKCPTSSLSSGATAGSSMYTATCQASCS
Kind of experiment: GLP-1 receptor binding, 125I-GLP-1 displacement SPA on isolated membranes. The settings on record: displacement of 125I-GLP-1 from membranes; read-out: IC50 GLP-1R. The procedure: The purpose of this assay was to test the in vitro receptor binding activity of the glucagon derivatives of the invention. The receptor binding is a measure of affinity of a compound for the human GLP-1 receptor.
The receptor binding of each compound to the human GLP-1 receptor was measured in a displacement binding assay. In this type of assay a labelled ligand (in this case 125I-GLP-1) is bound to the receptor. Each derivative was added in a series of concentrations to isolated membranes containing the human GLP-1 receptor and displacement of the labelled ligand was monitored. The receptor binding was reported as the concentration at which half of the labelled ligand was displaced from the receptor, the IC50 value.
In order to test the binding of the derivatives to albumin, the assay may be performed in a very low concentration of serum albumin (max. 0.001% final assay concentration) as well as in the presence of a higher concentration of serum albumin (2.0% final assay concentration). An increase of the IC50 value, in the presence of serum albumin indicates an affinity to serum albumin and represents a method to predict a protracted pharmacokinetic profile of the test substance in animal models.
The following chemicals were used in the assay: DMEM w/o phenol red (Gibco 11880-028), Pen/strep (Invitrogen 15140-122), G418 (Invitrogen 10131-027), 1 M Hepes (Gibco 15630), EDTA (Invitrogen 15575-038), PBS (Invitrogen 14190-094), fetal calf serum (Invitrogen 16140-071), EGTA, MgCl2 (Merck 1.05832.1000), Tween 20 (Amresco 0850C335), SPA particles (wheat germ agglutinin (WGA) SPA beads, Perkin Elmer RPNQ0001), [125I]-GLP-1]-(7-36)NH2 (produced in-house), OptiPlate™-96 (Perkin Elmer).
Buffer 1 consisted of 20 mM Na-HEPES plus 10 mM EDTA and pH was adjusted to 7.4.
Buffer 2 consisted of 20 mM Na-HEPES plus 0.1 mM EDTA and pH was adjusted to 7.4.
Assay buffer consisted of 50 mM HEPES supplemented with 5 mM EGTA, 5 mM MgCl2, 0.005% Tween 20 and pH was adjusted to 7.4.
The cells used in this assay (clone FCW467-12A) were BHK cells with BHKTS13 as a parent cell line. The cells express the human GLP-1 receptor.
The cells were grown at 5% CO2 in DMEM, 10% fetal calf serum, 1% Pen/Strep (Penicillin/Streptomycin) and 1.0 mg/ml of the selection marker G418. To make a membrane preparation the cells were grown to approximately 80% confluence. The cells were washed twice in phosphate-buffered saline and harvested. The cells were pelleted using a brief centrifugation and the cell pellet was kept on ice. The cell pellet was homogenised with ULTRA-THURRAX dispersing instrument for 20-30 sec in a suitable amount of buffer 1 (e.g. 10 ml). The homogenate was centrifuged for 15 min. The pellet was re-suspended (homogenised) in 10 ml buffer 2 and centrifuged. This step was repeated once more. The resulting pellet was re-suspended in buffer 2 and the protein concentration was determined. The membranes were aliquoted and stored at minus 80° C.
1. For the receptor binding assay, 50 μl of the assay buffer was added to each well of an assay plate.
2. Test compounds were serially diluted to give the following concentrations: 8×10EE-7 M, 8×10EE-8 M, 8×10EE-9 M, 8×10EE-10 M, 8×10EE-11 M, 8×10EE-12 M and 8×10EE-13 M. Twenty-five μl were added to appropriate wells in the assay plate.
3. Cell membrane aliquots were thawed and diluted to their working concentration. Fifty μl were added to each well in the assay plate.
4. WGA SPA beads were suspended in assay buffer at 20 mg/ml. The suspension was diluted to 10 mg/ml in assay buffer just prior to addition to the assay plate. Fifty μl were added to each well in the assay plate.
5. The incubation was started by adding 25 μl of 480 pM solution of [125I]-GLP-1]-(7-36)NH2 to each well of the assay plate. A 25 μl aliquot was reserved for measuring total counts/well.
6. The assay plate was incubated for 2 h at 30° C.
7. The assay plate was centrifuged for 10 min.
8. The assay plate was read in a Perkin Elmer TopCount NXT instrument. […]
(In a radioligand displacement assay an active substance lowers the binding of a labelled ligand.)

In experiment [2] the target is T1, human GLP-1 receptor. Briefly: GLP-1 receptor potency, CRE luciferase reporter gene assay in BHK cells. The class given is cell-based. The settings on record: BHK cells expressing human GLP-1 receptor, read-out: EC50 GLP-1R. The procedure: The purpose of this example was to test the potency, of the glucagon derivatives of the invention, in vitro. The in vitro potency is the measure of human GLP-1 receptor or glucagon receptor activation, respectively, in a whole cell assay.
In vitro potency was determined by measuring the response of human GLP-1 or glucagon receptor, respectively, in a reporter gene assay. The assay was performed in a stably transfected BHK cell line that expresses either the human GLP-1 receptor or the human glucagon receptor and contains the DNA for the cAMP response element (CRE) coupled to a promoter and the gene for firefly luciferase (CRE luciferase). […] When assay incubation was completed, the luciferase substrate (luciferin) was added and the enzyme converted luciferin to oxyluciferin and produces bioluminescence. The luminescence was measured as the readout for the assay.
The cells used in this assay (clone FCW467-12A/KZ10-1) were BHK cells with BHKTS13 as a parent cell line. The cells were derived from a clone (FCW467-12A) that expresses the human GLP-1 receptor and were established by further transfection with
CRE luciferase to obtain the current clone.
The cells were cultured at 5% CO2 in DMEM medium with 10% FBS, 1×GlutaMAX, 1 mg/ml G418, 240 nM MTX (methotrexate) and 1% pen/strep (penicillin/streptomycin). They were aliquoted and stored in liquid nitrogen. Before each assay, an aliquot was taken up and washed three times in PBS before being suspended at the desired concentration in assay medium. For 96-well plates the suspension was made to give a final concentration of 5×10EE3 cells/well.
The following chemicals were used in the assay: Pluronic F-68 (10%) (Gibco 2404), ovalbumin (Sigma A5503), DMEM w/o phenol red (Gibco 11880-028), 1 M Hepes (Gibco 15630), Glutamax 100× (Gibco 35050) and steadylite plus (PerkinElmer 6016757).
Assay Medium consisted of DMEM w/o phenol red, 10 mM Hepes, lx GlutaMAX, 2% Ovalbumin and 0.2% Pluronic F-68.
Cell stocks were thawed in a 37° C. water bath. Cells were washed three times in PBS. The cells were counted and adjusted to 5×10EE3 cells/50 μl (1×10EE5 cells/ml) in Assay Medium. A 50 μl aliquot of cells was transferred to each well in the assay plate.
Stocks of the test compounds and reference compounds were diluted to a concentration of […] in Assay Medium. Compounds were diluted 10-fold to give the following concentrations: 2×10EE-6 M, 2×10EE-7 M, 2×10EE-8 M; 2×10EE-9 M, 2×10EE-10 M, 2×10EE-11 M, 2×10EE-12 M and 2×10EE-13 M. For each compound a blank assay medium control was also included.
A 50 μl aliquot of compound or blank was transferred from the dilution plate to the assay plate. Compounds were tested at the following final concentrations: 1×10EE-6 M, 1×10EE-7 M, 1×10EE-8 M; 1×10EE-9 M, 1×10EE-10 M, 1×10EE-11 M and 1×10EE-12 M and 1×10EE-13 M.
The assay plate was incubated for 3 h in a 5% CO2 incubator at 37° C. The assay plate was removed from the incubator and allowed to stand at room temperature for 15 min. A 100 μl aliquot of steadylite plus reagent was added to each well of the assay plate (reagent is light sensitive). Each assay plate was covered with aluminum foil to protect it from light and shaken for 30 min at room temperature. Each assay plate was read in a Perkin Elmer TopCount NXT instrument.
The data from the TopCount instrument was transferred to GraphPad Prism software. The software performed a non-linear regression (log(agonist) vs response-Variable slope (four parameter)). EC50 values were calculated by the software and reported in pM.

One may read the IC50 as the point on the concentration scale where inhibition reaches its midpoint. What is called EC50 is the concentration needed to bring the measured effect to its halfway point. Take `CC(C)C[C@H](NC(=O)[C@H](Cc1ccc(O)cc1)NC(=O)[C@H](CCCCN)NC(=O)[C@H](CO)NC(=O)[C@H](CC(C)C)NC(=O)[C@H](CC(=O)O)NC(=O)[C@H](CO)NC(=O)[C@@H](NC(=O)[C@H](Cc1ccccc1)NC(=O)[C@@H](NC(=O)CNC(=O)[C@H](CCC(N)=O)NC(=O)C(C)(C)NC(=O)[C@@H](N)Cc1c[nH]cn1)[C@@H](C)O)[C@@H](C)O)C(=O)N[C@@H](CCC(=O)O)C(=O)N[C@@H](CO)C(=O)N[C@@H](CCCNC(=N)N)C(=O)N[C@@H](CCCNC(=N)N)C(=O)N[C@@H](C)C(=O)N[C@@H](CCCNC(=N)N)C(=O)N[C@@H](CC(=O)O)C(=O)N[C@@H](Cc1ccccc1)C(=O)N[C@H](C(=O)N[C@@H](CCC(N)=O)C(=O)N[C@@H](Cc1c[nH]c2ccccc12)C(=O)N[C@@H](CC(C)C)C(=O)N[C@@H](CC(C)C)C(=O)N[C@@H](CCCCNC(=O)COCCOCCNC(=O)COCCOCCNC(=O)CC[C@H](NC(=O)CC[C@H](NC(=O)CC[C@H](NC(=O)CCCCCCCCCCCCCCCCC(=O)O)C(=O)O)C(=O)O)C(=O)O)C(=O)N[C@H](C(N)=O)[C@@H](C)O)C(C)C` [Example 57, N^ε28-[2-[2-[2-[(2-[2-[2-[[(4S)-4-carboxy-4-[[(4S)-4-carboxy-4-[[(4S)-4-carboxy-4-(17-carboxyheptadecanoylamino)butanoyl]amino]butanoyl]amino]butanoyl]amino]ethoxy]ethoxy]acetyl]amino]ethoxy]ethoxy]acetyl]-[Aib2,Leu10,Glu15,Arg20,Leu27,Lys28]-Glucagon amide] (H-H[Aib]QGTFTSDLSKYLESRRARDFVQWLLK([AEEA-AEEA-γGlu-γGlu-γGlu-C18 diacid])T-NH2; N-terminus assumed): in experiment [1], the IC50 came to 0.2 nM. In addition, the EC50 in experiment [2] stood at 0.003 nM.

Turning to `CC(C)C[C@H](NC(=O)[C@H](Cc1ccc(O)cc1)NC(=O)[C@H](CCCNC(=N)N)NC(=O)[C@H](CO)NC(=O)[C@H](CC(C)C)NC(=O)[C@H](CC(=O)O)NC(=O)[C@H](CO)NC(=O)[C@@H](NC(=O)[C@H](Cc1ccccc1)NC(=O)[C@@H](NC(=O)CNC(=O)[C@H](CCC(N)=O)NC(=O)C(C)(C)NC(=O)[C@@H](N)Cc1c[nH]cn1)[C@@H](C)O)[C@@H](C)O)C(=O)N[C@@H](CC(=O)O)C(=O)N[C@@H](C)C(=O)N[C@@H](CCCNC(=N)N)C(=O)N[C@@H](CCCNC(=N)N)C(=O)N[C@@H](C)C(=O)N[C@@H](CCC(N)=O)C(=O)N[C@@H](CC(=O)O)C(=O)N[C@@H](Cc1ccccc1)C(=O)N[C@H](C(=O)N[C@@H](CCC(N)=O)C(=O)N[C@@H](Cc1c[nH]c2ccccc12)C(=O)N[C@@H](CC(C)C)C(=O)N[C@@H](CC(C)C)C(=O)N[C@@H](CCCCNC(=O)COCCOCCNC(=O)COCCOCCNC(=O)CC[C@H](NC(=O)CC[C@H](NC(=O)CC[C@H](NC(=O)CCCCCCCCCCCCCCCCC(=O)O)C(=O)O)C(=O)O)C(=O)O)C(=O)N[C@H](C(N)=O)[C@@H](C)O)C(C)C` [Example 64, N^ε28-[2-[2-[2-[[2-[2-[2-[[(4S)-4-carboxy-4-[[(4S)-4-carboxy-4-[[(4S)-4-carboxy-4-(17-carboxyheptadecanoylamino)butanoyl]amino]butanoyl]amino]butanoyl]amino]ethoxy]ethoxy]acetyl]amino]ethoxy]ethoxy]acetyl]-[Aib2,Leu10,Arg12,Ala16,Leu27,Lys28]-Glucagon amide] (H-H[Aib]QGTFTSDLSRYLDARRAQDFVQWLLK([AEEA-AEEA-γGlu-γGlu-γGlu-C18 diacid])T-NH2; N-terminus assumed), in experiment [1], the IC50 came to 0.9 nM. Also, the 50% effective concentration (EC50) in experiment [2] is 0.003 nM.
